Source: patent US20230002327A1, “SMALL-MOLECULE REGULATOR OF TLR8” (TSINGHUA UNIVERSITY, priority 2019, published 2023)

The molecules below were run against T1, TLR7 (Homo sapiens, UniProt Q9NYK1) (assay: Inhibition of R848-induced signaling in HEK-Blue hTLR7 cell line (Quanti-Blue)). Settings: not given.
T1 construct: host or cells: HEK-Blue hTLR7 (HEK293-derived SEAP reporter cells)
T1 sequence (Q9NYK1 27-1049): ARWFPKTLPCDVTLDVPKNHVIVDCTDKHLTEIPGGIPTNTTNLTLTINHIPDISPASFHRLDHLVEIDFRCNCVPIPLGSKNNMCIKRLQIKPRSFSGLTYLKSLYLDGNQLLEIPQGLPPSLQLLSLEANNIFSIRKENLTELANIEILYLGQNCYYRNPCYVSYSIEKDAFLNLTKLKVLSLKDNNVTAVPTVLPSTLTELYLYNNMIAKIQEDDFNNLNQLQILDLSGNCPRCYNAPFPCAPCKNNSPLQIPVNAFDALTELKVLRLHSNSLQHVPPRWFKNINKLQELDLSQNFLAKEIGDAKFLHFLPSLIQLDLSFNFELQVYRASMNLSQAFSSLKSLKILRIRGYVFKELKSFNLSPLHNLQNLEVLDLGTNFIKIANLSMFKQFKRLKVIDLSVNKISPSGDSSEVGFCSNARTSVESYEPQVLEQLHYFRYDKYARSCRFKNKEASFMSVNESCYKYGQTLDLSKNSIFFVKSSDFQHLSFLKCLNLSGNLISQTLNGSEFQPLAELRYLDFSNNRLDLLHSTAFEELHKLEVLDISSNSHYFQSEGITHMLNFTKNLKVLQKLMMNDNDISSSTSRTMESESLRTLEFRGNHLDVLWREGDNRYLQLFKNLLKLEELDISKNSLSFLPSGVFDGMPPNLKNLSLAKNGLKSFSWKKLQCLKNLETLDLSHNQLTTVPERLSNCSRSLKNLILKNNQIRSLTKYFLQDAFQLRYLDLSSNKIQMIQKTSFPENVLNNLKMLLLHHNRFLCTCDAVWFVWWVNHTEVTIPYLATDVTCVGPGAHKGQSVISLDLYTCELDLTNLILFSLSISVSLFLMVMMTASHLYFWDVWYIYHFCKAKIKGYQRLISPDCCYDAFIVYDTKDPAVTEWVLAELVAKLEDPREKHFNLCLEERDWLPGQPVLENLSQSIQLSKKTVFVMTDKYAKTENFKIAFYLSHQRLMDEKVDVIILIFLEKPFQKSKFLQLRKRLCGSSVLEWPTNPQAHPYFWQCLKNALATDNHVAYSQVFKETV
Assay type: cell-based
Procedure: (§1) HEK Blue hTLR8 cells or HEK Blue hTLR7 cells were cultured in DMEM medium supplemented with 10% fetal bovine serum, penicillin (100 U/mL) and streptomycin ([…]). Thereafter, cells were seeded in 96-well plate (45,000 cells per well), and were cultured for 24 hours in a humidified incubator (37° C., 5% CO2).
After 24 hours, the supernatant and suspending cells were aspirated and replaced with fresh serum-free DMEM. Cells were treated with 1 μg/mL of R848 (agonist of TLR7/8) or 5 μg/mL of ssRNA40/LyoVec or 5 μg/mL of ORN06/LyoVec (InvivoGen) and compounds with specified concentrations, and were placed in a humidified incubator (37° C., 5% CO2) for co-culture.
(§2) After 24 hours, 50 μL of the medium was aspirated from each well and then added to a new 96-well plate, followed by the addition of 50 μL of Quanti-Blue in each well and the incubation at 37° C. in darkness. Changes in color would occur in the […] within 60 minutes, and the absorbance was measured at 620 nm by using the multi-mode plate reader Vrioskan Flash. Inhibition rate (%)=[R848 (OD620)−Compound (OD620)]/[R848 (OD620)−Control (OD620)]×100%. Among these, the control group was only added with the same amount of cells. Finally, the software Prism 6.0 was utilized to plot a graph and calculate IC50 values. Or, the activity of the cells treated with ligand and DMSO was defined as 100% activity, and the activity of the untreated cells was defined as 0% activity.

| TLR7 (normalized inhibitory effect on R848-induced signaling) | Structure (SMILES) |
| --- | --- |
| 0.8 ± 0.0 | CCOCc1nc(C(C)(C)O)c(-c2ccccc2)n1CC(C)(C)O [Compound 47, 1-[2-(ethoxymethyl)-4-(2-hydroxypropan-2-yl)-5-phenyl-1H-imidazole-1-yl]-2-methylpropan-2-ol] |
| 0.2 ± 0.1 | CC(C)Cn1cnc(I)c1-c1ccccc1 [Compound 59, 4-iodo-1-(2-methylpropyl)-5-phenyl-1H-imidazole] |
| 0.8 ± 0.0 | CCOCc1nc(-c2ccccc2)c(-c2ccccc2)n1CC(C)(C)O [Compound 49, 1-[2-(ethoxymethyl)-4,5-diphenyl-1H-imidazole-1-yl]-2-methylpropan-2-ol] |

What follows are molecules tested against T2, TLR8 (Homo sapiens, UniProt Q9NR97) (assay: Inhibition of R848-induced signaling in HEK-Blue hTLR8 cell line (Quanti-Blue)). Settings: HEK-Blue hTLR8 cell line; normalized, ligand+DMSO = 100% activity, untreated = 0%.
T2 construct: host or cells: HEK-Blue hTLR8 (HEK293-derived SEAP reporter cells)
T2 sequence (Q9NR97 27-1041): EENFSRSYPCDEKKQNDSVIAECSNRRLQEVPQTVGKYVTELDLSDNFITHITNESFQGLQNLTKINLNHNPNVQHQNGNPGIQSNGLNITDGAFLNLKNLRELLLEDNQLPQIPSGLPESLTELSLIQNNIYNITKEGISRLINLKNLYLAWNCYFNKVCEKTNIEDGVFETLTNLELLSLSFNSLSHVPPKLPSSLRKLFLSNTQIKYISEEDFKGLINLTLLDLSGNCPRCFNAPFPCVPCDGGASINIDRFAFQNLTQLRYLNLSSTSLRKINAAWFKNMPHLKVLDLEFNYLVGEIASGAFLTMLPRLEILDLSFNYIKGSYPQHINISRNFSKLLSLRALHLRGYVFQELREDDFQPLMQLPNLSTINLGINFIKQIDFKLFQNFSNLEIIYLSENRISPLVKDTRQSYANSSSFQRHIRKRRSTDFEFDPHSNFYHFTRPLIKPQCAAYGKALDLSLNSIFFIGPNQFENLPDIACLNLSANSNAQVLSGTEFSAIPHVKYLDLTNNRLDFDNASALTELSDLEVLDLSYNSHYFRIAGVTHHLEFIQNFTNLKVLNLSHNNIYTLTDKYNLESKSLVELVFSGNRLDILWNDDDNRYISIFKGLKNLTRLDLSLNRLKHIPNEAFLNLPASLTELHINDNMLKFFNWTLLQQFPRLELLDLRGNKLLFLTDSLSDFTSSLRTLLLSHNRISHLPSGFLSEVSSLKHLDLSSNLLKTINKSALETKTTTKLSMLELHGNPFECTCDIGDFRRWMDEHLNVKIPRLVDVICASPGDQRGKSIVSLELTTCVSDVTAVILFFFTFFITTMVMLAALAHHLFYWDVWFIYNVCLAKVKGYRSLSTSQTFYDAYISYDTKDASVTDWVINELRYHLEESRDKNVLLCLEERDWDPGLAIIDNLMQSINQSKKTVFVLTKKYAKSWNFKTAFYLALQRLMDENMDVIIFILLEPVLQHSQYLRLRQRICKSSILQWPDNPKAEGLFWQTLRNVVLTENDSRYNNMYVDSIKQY
Assay type: cell-based
Procedure: as §1
After 24 hours, the supernatant and suspending cells were aspirated and replaced with fresh serum-free DMEM.
as §2

| Remaining R848-induced TLR8 signaling (normalized activity; ligand+DMSO = 1, untreated = 0) | Structure (SMILES) |
| --- | --- |
| 0.9 ± 0.1 | CCOCc1nc(C(C)(C)O)c(-c2ccccc2)n1CC(C)(C)O [Compound 47, 1-[2-(ethoxymethyl)-4-(2-hydroxypropan-2-yl)-5-phenyl-1H-imidazole-1-yl]-2-methylpropan-2-ol] |
| 0.2 ± 0.1 | CC(C)Cn1cnc(I)c1-c1ccccc1 [Compound 59, 4-iodo-1-(2-methylpropyl)-5-phenyl-1H-imidazole] |
| 0.6 ± 0.0 | CCOCc1nc(-c2ccccc2)c(-c2ccccc2)n1CC(C)(C)O [Compound 49, 1-[2-(ethoxymethyl)-4,5-diphenyl-1H-imidazole-1-yl]-2-methylpropan-2-ol] |

Same assay, conditions: R848-induced signaling, HEK-Blue hTLR8 cell line; value ± standard deviation, at least triplicate

| Structure (SMILES) | IC50 [nM] |
| --- | --- |
| CSc1nnc(CCCO)n1-c1ccccc1Cl [Compound 17, 3-(4-(2-chlorophenyl)-5-(methylthio)-4H-1,2,4-triazole-3-yl)propan-1-ol] | 980 |
| CSc1nnc(CCCO)n1-c1cccc(Cl)c1 [Compound 18, 3-(4-(3-chlorophenyl)-5-(methylthio)-4H-1,2,4-triazole-3-yl)propan-1-ol] | 350 ± 20 |
| CC(C)Sc1nnc(CCCO)n1-c1ccc(Cl)cc1Cl [Compound 12, 3-(4-(2,4-dichlorophenyl)-5-(isopropylthio)-4H-1,2,4-triazole-3-yl)propan-1-ol] | 10100 ± 800 |
| CSc1nnc(CCCO)n1-c1cc(Cl)c(Cl)c(Cl)c1 [Compound 23, 3-(5-(methylthio)-4-(3,4,5-trichlorophenyl)-4H-1,2,4-triazole-3-yl)propan-1-ol] | 110 ± 10 |
| CSc1nnc(CCCO)n1-c1ccc(Cl)c(Cl)c1 [Compound 19, 3-(4-(3,4-dichlorophenyl)-5-(methylthio)-4H-1,2,4-triazole-3-yl)propan-1-ol] | 190 ± 10 |
| CSc1nnc(CCCO)n1-c1ccc(Cl)c(Cl)c1Cl [Compound 22, 3-(5-(methylthio)-4-(2,3,4-trichlorophenyl)-4H-1,2,4-triazole-3-yl)propan-1-ol] | 600 ± 100 |
| Cc1nnc(SCc2c(Cl)cccc2Cl)n1-c1cccc(F)c1 [Compound 2, 3-((2,6-dichlorobenzyl)thio)-4-(3-fluorophenyl)-5-methyl-4H-1,2,4-triazole] | 6180 ± 290 |
| OCCCCc1nnc(SCc2c(Cl)cccc2Cl)n1-c1ccc(F)cc1F [Compound 34, 4-(5-((2,6-dichlorobenzyl)thio)-4-(2,4-difluorophenyl)-4H-1,2,4-triazole-3-yl)butan-1-ol] | 11400 ± 700 |
| Fc1cccc(-n2cnnc2SCc2c(Cl)cccc2Cl)c1 [Compound 1, 3-((2,6-dichlorobenyl)thio)-4-(3-fluorophenyl)-4H-1,2,4-triazole] | 1950 ± 190 |
| CSc1nnc(CCCO)n1-c1ccc2ncccc2c1 [Compound 37, 3-(5-(methylthio)-4-(quinolin-6-yl)-4H-1,2,4-triazole-3-yl)propan-1-ol] | 650 ± 10 |
| COc1ccc(-n2c(CCCO)nnc2SC)cc1 [Compound 25, 3-(4-(4-methoxyphenyl)-5-(methylthio)-4H-1,2,4-triazole-3-yl)propan-1-ol] | 3860 ± 310 |

Next, values leading:

| IC50 [nM] | Structure (SMILES) |
| --- | --- |
| 8440 ± 780 | OCCCc1nnc(SCc2c(Cl)cccc2Cl)n1-c1ccc(F)cc1F [Compound 33, 3-(5-((2,6-dichlorobenzyl)thio)-4-(2,4-difluorophenyl)-4H-1,2,4-triazole-3-yl)propan-1-ol] |
| 8010 ± 130 | OCCCc1nnc(SCC2CC2)n1-c1ccc(Cl)cc1Cl [Compound 13, 3-(5-((cyclopropylmethyl)thio)-4-(2,4-dichlorophenyl)-4H-1,2,4-triazole-3-yl)propan-1-ol] |
| 4840 ± 820 | CSc1nnc(CCCO)n1-c1ccc(C(F)(F)F)cc1 [Compound 26, 3-(5-(methylthio)-4-(4-(trifluoromethyl)phenyl)-4H-1,2,4-triazole-3-yl)propan-1-ol] |
| 2810 ± 440 | CSc1nnc(CCCO)n1-c1c(Cl)cc(Cl)cc1Cl [Compound 21, 3-(5-(methylthio)-4-(2,4,6-trichlorophenyl)-4H-1,2,4-triazole-3-yl)propan-1-ol] |
| 2130 ± 560 | CSc1nnc(CCCO)n1-c1ccc(F)cc1F [Compound 15, 3-(4-(2,4-difluorophenyl)-5-(methylthio)-4H-1,2,4-triazole-3-yl)propan-1-ol] |
| 800 ± 70 | CSc1nnc(CCCO)n1-c1cccc(Cl)c1Cl [Compound 20, 3-(4-(2,3-dichlorophenyl)-5-(methylthio)-4H-1,2,4-triazole-3-yl)propan-1-ol] |
| 740 | CSc1nnc(CCCO)n1-c1cnc2ccccc2c1 [Compound 36, 3-(5-(methylthio)-4-(quinolin-3-yl)-4H-1,2,4-triazole-3-yl)propan-1-ol] |
| 630 ± 20 | CCCc1nnc(SC)n1-c1ccc(Cl)cc1Cl [Compound 7, 4-(2,4-dichlorophenyl)-3-(methylthio)-5-propyl-4H-1,2,4-triazole] |
| 590 ± 30 | CSc1nnc(CCO)n1-c1ccc(Cl)cc1Cl [Compound 4, 2-(4-(2,4-dichlorophenyl)-5-(methylthio)-4H-1,2,4-triazole-3-yl)ethan-1-ol] |
| 390 ± 40 | CCSc1nnc(CCCO)n1-c1ccc(Cl)cc1Cl [Compound 11, 3-(4-(2,4-dichlorophenyl)-5-(ethylthio)-4H-1,2,4-triazole-3-yl)propan-1-ol] |
